Reference: ChEMBL document CHEMBL5136999, “Contemporary Medicinal Chemistry Strategies for the Discovery and Development of Novel HIV-1 Non-nucleoside Reverse Transcriptase Inhibitors” (J Med Chem, 2022)

How the values were obtained:
[1] = test system: Human immunodeficiency virus 1; experiment: Antiviral activity against wild type HIV-1 IIIB infected in human MT2 cells assessed as protection against virus-induced cytopathicity by MTT assay; type: functional, organism-based; settings: Human immunodeficiency virus 1, IIIB
[2] = test system: Human immunodeficiency virus 1; experiment: Antiviral activity against HIV-1 harboring Y181C mutant infected in human MT2 cells assessed as protection against virus-induced cytopathicity by MTT assay; type: functional, organism-based; settings: Human immunodeficiency virus 1, MT2
[3] = test system: Human immunodeficiency virus 1; experiment: Antiviral activity against HIV-1 harboring K103N/Y181C mutant infected in human MT2 cells assessed as protection against virus-induced cytopathicity by MTT assay; type: functional, organism-based; settings: Human immunodeficiency virus 1, MT2
[4] = test system: Human immunodeficiency virus 1; experiment: Antiviral activity against HIV-1 harboring K101P mutant infected in human MT2 cells assessed as protection against virus-induced cytopathicity by MTT assay; type: functional, organism-based; settings: Human immunodeficiency virus 1, MT2
[5] = test system: Human immunodeficiency virus 1; experiment: Antiviral activity against wild type HIV-1 IIIB infected in human MT2 cells assessed as protection against virus-induced cytopathicity; type: functional, organism-based; settings: Human immunodeficiency virus 1, IIIB
[6] = test system: Human immunodeficiency virus 1; experiment: Antiviral activity against HIV-1 harboring K103N/Y181C mutant infected in human MT2 cells assessed as protection against virus-induced cytopathicity; type: functional, organism-based; settings: Human immunodeficiency virus 1, MT2
[7] = Cytotoxicity against human MT2 cells assessed as cell viability; type: toxicity, cell-based
[8] = test system: Human immunodeficiency virus 1; experiment: Antiviral activity against wild type HIV-1 IIIB infected in human MT4 cells assessed as protection against virus-induced cytopathicity by MTT assay; type: functional, organism-based; settings: Human immunodeficiency virus 1, IIIB
[9] = test system: Human immunodeficiency virus 1; experiment: Antiviral activity against HIV-1 harboring E138K mutant infected in human MT4 cells assessed as protection against virus-induced cytopathicity by MTT assay; type: functional, organism-based; settings: Human immunodeficiency virus 1, MT4
[10] = test system: Human immunodeficiency virus 1; experiment: Antiviral activity against HIV-1 harboring K103N mutant infected in human MT4 cells assessed as protection against virus-induced cytopathicity by MTT assay; type: functional, organism-based; settings: Human immunodeficiency virus 1, MT4
[11] = Cytotoxicity against human MT4 cells assessed as cell viability by MTT assay; type: toxicity, cell-based
[12] = Metabolic stability in rat liver microsomes assessed as clearance; type: ADME, Microsome; settings: read-out: CLH
[13] = Metabolic stability in human liver microsomes assessed as clearance; type: ADME, Microsome; settings: read-out: CLH
[14] = Oral bioavailability in Sprague-Dawley rat at 5 mg/kg measured up to 24 hrs by LC-MS analysis; type: ADME, organism-based; settings: in vivo
HOS = experiment: Cytotoxicity against human HOS cells assessed as reduction in cell viability measured after 48 hrs; type: functional

Molecule `N#Cc1cc2c(Oc3ccccc3OCCn3ccc(=O)[nH]c3=O)cccn2c1` has an EC50 [1] of 380 nM, an EC50 [2] of 310 nM and an EC50 [3] of 11 nM. For the same molecule, the EC50 [4] was 1 nM.
With `Cc1c(Oc2ccccc2OCCn2ccc(=O)[nH]c2=O)cc(Cl)c2ccc(C#N)cc12` the EC50 [5] was 6.2 nM, the EC50 [6] was 280 nM and the CC50 [7] was > 100000 nM.
With `Cc1c(Oc2ccccc2OCCn2ccc(=O)[nH]c2=O)cc(N(C)C(=O)CCl)c2ccc(C#N)cc12` the EC50 [5] was 580 nM and the EC50 [6] was 570 nM.
`C=CC(=O)N(C)c1cc(Oc2ccccc2OCCn2ccc(=O)[nH]c2=O)c(C)c2cc(C#N)ccc12` gave an EC50 [5] of 560 nM and an EC50 [6] of 500 nM.
`Cc1cc(/C=C/C#N)cc([N+](=O)[O-])c1Nc1nc(Nc2ccc(C#N)cc2)nc2ccccc12` showed an EC50 [8] of 3.4 nM, an EC50 [9] of 4.3 nM and an EC50 [10] of 3.6 nM. The CC50 [11] was 6140 nM, the microsomal CLint [12] was 33.2 µL/min/mg and the microsomal CLint [13] was 34.5 µL/min/mg. The bioavailability [14] was 16.5%.
Work on `Cc1cc(/C=C/C#N)cc(C)c1-n1cnc2cnc(Nc3ccc(C#N)cc3)nc21` yielded a CC50 (HOS) of 42000 nM.
Molecule `Cc1cc(/C=C/C#N)cc([N+](=O)[O-])c1Nc1nc(Nc2ccc(C#N)cc2)nc2ccc(Cl)cc12` has an EC50 [8] of 10.6 nM, an EC50 [9] of 17.7 nM and an EC50 [10] of 10.2 nM. The CC50 [11] was 3950 nM, the microsomal CLint [12] was 30.6 µL/min/mg and the microsomal CLint [13] was 14.4 µL/min/mg. For the same molecule, the bioavailability [14] was 15.5%.
`Cc1cc(/C=C/C#N)cc(C)c1Nc1ncc2ncn(-c3ccc(C#N)cc3)c2n1` gave a CC50 (HOS) of 21000 nM.
In the case of `O=C1Nc2ccc(Cl)cc2[C@@](C#CC2CC2)(C(F)(F)F)O1` [EFAVIRENZ], the EC50 [8] is reported as 3.2 nM, the EC50 [10] is reported as 147 nM and the CC50 [11] is reported as > 40200 nM.
With `Cc1cc(C#N)cc(C)c1Oc1nc(Nc2ccc(C#N)cc2)nc(N)c1Br` [ETRAVIRINE] the EC50 [9] was 10.9 nM, the EC50 [10] was 3.5 nM and the CC50 [11] was > 4620 nM.
In the case of `Cc1ccnc2c1NC(=O)c1cccnc1N2C1CC1` [NEVIRAPINE], the EC50 [2] is reported as > 100000 nM and the EC50 [3] is reported as > 100000 nM.
Work on `Cc1cc(/C=C/C#N)cc(C)c1Nc1ccnc(Nc2ccc(C#N)cc2)n1` [RILPIVIRINE] yielded a CC50 (HOS) of 10000 nM.
